Data on 5 compounds can be found in publication PMC3076582 (European Journal of Clinical Pharmacology, 2010).

Like-named read-outs stand apart in the source and are kept apart here.

Data set [1] is classed as in vivo, human. Conditions: for Dose-corrected serum concentration, 25th percentile / Dose-corrected serum concentration, 75th percentile / Dose-corrected serum concentration, mean / Dose-corrected serum concentration, median / Dose-corrected serum concentration, minimum to maximum / Uncorrected serum concentration, 25th percentile / Uncorrected serum concentration, 75th percentile / Uncorrected serum concentration, mean / Uncorrected serum concentration, minimum to maximum / Uncorrected serum concentration, median / Ratio metabolite/oxycodone serum concentration, 25th percentile / Ratio metabolite/oxycodone serum concentration, 75th percentile / Ratio metabolite/oxycodone serum concentration, mean / Ratio metabolite/oxycodone serum concentration, median / Ratio metabolite/oxycodone serum concentration, minimum to maximum: hospitalised patients; for Uncorrected serum concentration, median: oral oxycodone, trough sample; for Serum concentration, range / Serum concentration, median: partly different from Table 3; for Ratio metabolite/oxycodone serum concentration, 25th percentile / Ratio metabolite/oxycodone serum concentration, 75th percentile / Ratio metabolite/oxycodone serum concentration, mean / Ratio metabolite/oxycodone serum concentration, median / Ratio metabolite/oxycodone serum concentration, minimum to maximum: uncorrected serum concentrations.

For data set [2] the following is noted: for Unstandardised coefficient B, ratio noroxycodone/oxycodone / Unstandardised coefficient B, oxycodone serum concentration / Unstandardised coefficient B, ratio oxymorphone/oxycodone: log 10 form.
The test system of a further data set is CYP2D6. Conditions: healthy volunteers; cited from earlier work.
The next data set relates to CYP3A4. The following applies: cited from earlier work.
The conditions of data set [3]: Mann-Whitney U test; 35 users.
For data set [4] the following is noted: cited from earlier work.
For data set [5] the following is noted: cited from earlier work. The source holds these as a separate data set.
The conditions of data set [6]: cited from earlier work. The source holds these as a separate data set.
Setting [7] is: factor: CYP3A4 inducer (yes = 1).
Setting [8] is: factor: CYP3A4 inhibitor (yes = 1).
Where [9] appears, read: factor: sex (men = 1, women = 0).
Setting [10] is: factor: time from last oxycodone dose to blood sample.

Take `COc1ccc2c3c1O[C@H]1C(=O)CC[C@@]4(O)[C@@H](C2)NCC[C@]314` [Noroxycodone, noroxycodone]: in data set [1], the “95% CI for the mean ratio metabolite/oxycodone” value was in the range of 1.4 to 1.8 nM; the “95% CI for the uncorrected mean serum concentration” value lay in the range of 174 to 245 nM; the “Dose-corrected serum concentration, 25th percentile” value is 103 nM × 100 mg 24 h^−1/dose 24 h^−1; the “Dose-corrected serum concentration, 75th percentile” value is 261 nM × 100 mg 24 h^−1/dose 24 h^−1. In addition, in data set [1], the “Dose-corrected serum concentration, mean” value is 212 nM × 100 mg 24 h^−1/dose 24 h^−1; the “Dose-corrected serum concentration, median” value is on record as 161 nM × 100 mg 24 h^−1/dose 24 h^−1; the “Dose-corrected serum concentration, minimum to maximum” value is listed as 0–3,032 nM × 100 mg 24 h^−1/dose 24 h^−1; the “Uncorrected serum concentration, 25th percentile” value came to 44 nM. Besides, in data set [1], the “Uncorrected serum concentration, 75th percentile” value is given as 211 nM; the “Uncorrected serum concentration, mean” value is on record as 209 nM; the “Uncorrected serum concentration, minimum to maximum” value was 0–3,571 nM; the “Uncorrected serum concentration, median” value amounted to 101 nM. Moreover, in data set [1], the “Serum concentration, range” value was 0 to 4,858 nM; the “Ratio metabolite/oxycodone serum concentration, 25th percentile” value amounted to 0.7; the “Ratio metabolite/oxycodone serum concentration, 75th percentile” value came out at 1.9; the “Ratio metabolite/oxycodone serum concentration, mean” value is recorded as 1.6. Moreover, in data set [1], the “Ratio metabolite/oxycodone serum concentration, median” value amounted to 1.1 and the “Ratio metabolite/oxycodone serum concentration, minimum to maximum” value is 0.1–24.4. Further, the “Unstandardised coefficient B, ratio noroxycodone/oxycodone” value in data set [2] (factor: BMI) was −0.009. Also, in data set [2] (setting [7]), the “Unstandardised coefficient B, ratio noroxycodone/oxycodone” value amounted to 0.602. Also, the “Unstandardised coefficient B, ratio noroxycodone/oxycodone” value in data set [2] (setting [8]) is given as −0.294. Besides, the “Unstandardised coefficient B, ratio noroxycodone/oxycodone” value in data set [2] (factor: albumin) was found to be 0.006. The “Unstandardised coefficient B, ratio noroxycodone/oxycodone” value in data set [2] (factor: glomerular filtration rate) is −0.001. Moreover, the “Unstandardised coefficient B, ratio noroxycodone/oxycodone” value in data set [2] (factor: oxycodone total daily dose, n = 396, R^2 = 0.19) is 0.001. The “Unstandardised coefficient B, ratio noroxycodone/oxycodone” value in data set [2] (setting [9]) was −0.110. Further, the “Unstandardised coefficient B, ratio noroxycodone/oxycodone” value in data set [2] (factor: systemic steroids (yes = 1)) is recorded as −0.070. Also, the “Unstandardised coefficient B, ratio noroxycodone/oxycodone” value in data set [2] (setting [10]) amounted to 0.012. For the same compound, in data set [2] (human, in vivo), the “Predicted higher noroxycodone/oxycodone ratio in users of CYP3A4 inducers” value was “about 4 times” and the “Predicted lower noroxycodone/oxycodone ratio in users of systemic steroids” value is given as 15%. In addition, the “AUC after blocking the CYP2D6 metabolic pathways of oxycodone with quinidine” value (“AUC … with quinidine” below) in the data set with CYP2D6 is recorded as “increased”. Further, the “Cmax after blocking the CYP3A4 metabolic pathway with ketoconazole” value in the data set with CYP3A4 is listed as “decreased”.

On to `O=C1CC[C@@]2(O)[C@H]3Cc4ccc(O)c5c4[C@@]2(CCN3)[C@H]1O5` [Noroxymorphone, noroxymorphone], for which, in data set [1], the “Dose-corrected serum concentration, 25th percentile” value is 18 nM × 100 mg 24 h^−1/dose 24 h^−1; the “Dose-corrected serum concentration, 75th percentile” value is 44 nM × 100 mg 24 h^−1/dose 24 h^−1; the “Dose-corrected serum concentration, mean” value was 34 nM × 100 mg 24 h^−1/dose 24 h^−1; the “Dose-corrected serum concentration, median” value is recorded as 29 nM × 100 mg 24 h^−1/dose 24 h^−1. In data set [1], the “Dose-corrected serum concentration, minimum to maximum” value is recorded as 0–360 nM × 100 mg 24 h^−1/dose 24 h^−1; the “Uncorrected serum concentration, 25th percentile” value turned out to be 8 nM; the “Uncorrected serum concentration, 75th percentile” value stood at 39 nM; the “Uncorrected serum concentration, mean” value came to 30 nM. In data set [1], the “Uncorrected serum concentration, minimum to maximum” value is 0 to 509 nM; the “Uncorrected serum concentration, median” value turned out to be 17 nM; the “Serum concentration, median” value is 17 nM; the “Serum concentration, range” value was in the range of 0 to 509 nM.

In the case of `COc1ccc2c3c1O[C@H]1C(=O)CC[C@@]4(O)[C@@H](C2)N(C)CC[C@]314` [Oxycodone, oxycodone, reference compound], in data set [1], the “95% CI for the uncorrected mean serum concentration” value was in the range of 139 to 183 nM; the “Dose-corrected serum concentration, 25th percentile” value is recorded as 90 nM × 100 mg 24 h^−1/dose 24 h^−1; the “Dose-corrected serum concentration, 75th percentile” value is listed as 225 nM × 100 mg 24 h^−1/dose 24 h^−1; the “Dose-corrected serum concentration, mean” value is listed as 186 nM × 100 mg 24 h^−1/dose 24 h^−1. Besides, in data set [1], the “Dose-corrected serum concentration, median” value was 144 nM × 100 mg 24 h^−1/dose 24 h^−1; the “Dose-corrected serum concentration, minimum to maximum” value is recorded as 0–1,294 nM × 100 mg 24 h^−1/dose 24 h^−1; the “Uncorrected serum concentration, 25th percentile” value came out at 43 nM; the “Uncorrected serum concentration, 75th percentile” value was determined as 201 nM. In addition, in data set [1], the “Uncorrected serum concentration, mean” value turned out to be 161 nM; the “Uncorrected serum concentration, minimum to maximum” value was 0–1,890 nM; the “Uncorrected serum concentration, median” value is reported as 97 nM; the “Serum concentration, range” value is reported as 0 to 1,890 nM. In data set [2] (calculated from the regression analysis), the “Predicted higher oxycodone serum concentration in men than in women” value is given as “about 30%”. Also, the “Unstandardised coefficient B, oxycodone serum concentration” value in data set [2] (setting [7]) is on record as −0.786. The “Unstandardised coefficient B, oxycodone serum concentration” value in data set [2] (setting [8]) was 0.204. The “Unstandardised coefficient B, oxycodone serum concentration” value in data set [2] (factor: oxycodone total daily dose, n = 433, R^2 = 0.35) was determined as 0.002. The “Unstandardised coefficient B, oxycodone serum concentration” value in data set [2] (setting [9]) was 0.113. Further, the “Unstandardised coefficient B, oxycodone serum concentration” value in data set [2] (setting [10]) is −0.027. Besides, the “Predicted higher oxycodone serum concentration in users of CYP3A4 inhibitors” value in data set [2] (versus non-users) is 60%. In data set [2] (versus those without CYP3A4 inducer drug), the “Predicted lower oxycodone serum concentration in users of CYP3A4 inducer drugs” value is 84%. In data set [3], the “Serum concentration, users versus non-users of CYP2D6 inhibitors” value is on record as “did not differ”. Moreover, the Oral bioavailability in data set [4] was 60–87%. The “AUC … with quinidine” value with CYP2D6 is on record as “increased”. Besides, the “Plasma concentrations in elderly versus younger patients” value in data set [5] was “may have higher”.

For `CN1CC[C@]23c4c5ccc(O)c4O[C@H]2C(=O)CC[C@@]3(O)[C@H]1C5` [Oxymorphone, oxymorphone], in data set [1], the “95% CI for the mean ratio metabolite/oxycodone” value was 0.020 to 0.025 nM; the “95% CI for the uncorrected mean serum concentration” value lay in the range of 2.3 to 3.0 nM; the “Dose-corrected serum concentration, 25th percentile” value is 1.2 nM × 100 mg 24 h^−1/dose 24 h^−1; the “Dose-corrected serum concentration, 75th percentile” value is listed as 4.2 nM × 100 mg 24 h^−1/dose 24 h^−1. For the same compound, in data set [1], the “Dose-corrected serum concentration, mean” value was 3.4 nM × 100 mg 24 h^−1/dose 24 h^−1; the “Dose-corrected serum concentration, median” value was 2.2 nM × 100 mg 24 h^−1/dose 24 h^−1; the “Dose-corrected serum concentration, minimum to maximum” value is on record as 0–34 nM × 100 mg 24 h^−1/dose 24 h^−1; the “Uncorrected serum concentration, 25th percentile” value is 0.7 nM. Also, in data set [1], the “Uncorrected serum concentration, 75th percentile” value is given as 3.2 nM; the “Uncorrected serum concentration, mean” value stood at 2.6 nM; the “Uncorrected serum concentration, minimum to maximum” value is 0 to 25 nM; the “Uncorrected serum concentration, median” value stood at 1.5 nM. In data set [1], the “Serum concentration, median” value was found to be 1.5 nM; the “Serum concentration, range” value lay within 0 to 27 nM; the “Ratio metabolite/oxycodone serum concentration, 25th percentile” value was determined as 0.01; the “Ratio metabolite/oxycodone serum concentration, 75th percentile” value was found to be 0.03. Besides, in data set [1], the “Ratio metabolite/oxycodone serum concentration, mean” value is 0.02; the “Ratio metabolite/oxycodone serum concentration, median” value is 0.02; the “Ratio metabolite/oxycodone serum concentration, minimum to maximum” value is 0.00032–0.21. For the same compound, the “Unstandardised coefficient B, ratio oxymorphone/oxycodone” value in data set [2] (setting [7]) stood at 0.607. Further, the “Unstandardised coefficient B, ratio oxymorphone/oxycodone” value in data set [2] (factor: number of medications (excluding opioids) taken in the last 24 h) was −0.024. The “Unstandardised coefficient B, ratio oxymorphone/oxycodone” value in data set [2] (factor: oxycodone total daily dose, n = 438, R^2 = 0.05) is −0.0004. For the same compound, in data set [3], the “Serum concentration, users versus non-users of CYP2D6 inhibitors” value was “did not differ”. The “AUC … with quinidine” value in the data set on CYP2D6 was “decreased”. Further, the “AUC after blocking the CYP3A4 metabolic pathway with ketoconazole” value with CYP3A4 is listed as “increased”. Moreover, in data set [5], the “Concentrations in patients with impaired hepatic function” value is recorded as “lower”.

As to `CN1CC[C@]23c4c5ccc(O)c4O[C@H]2[C@@H](O)C=C[C@H]3[C@H]1C5` [morphine], in data set [6], the “Additional morphine needed by men compared with women for pain relief” value is listed as 30–40%.
